# Experiments:
# Test in all cases: field test of gametocidal activity (sterilisation of anthers)
# Type in all cases: in vivo
# [1] = tested on: Tritikale der Sorte PRAG-109; settings: V. Periode, 1%ige wäßrige Emulsion, 10 kg/ha; for Prozentsatz des Ansetzens der Körner bei freier Bestäubung: control = 100
# Text: (§1) Die gametozide Aktivität der erfindungsgemäßen Sterilisationsmittel war in Feldversuch in verschiedenen bodenklimatischen Zonen mit Teilstücken von 10 m^2 Größe in drei-- bis viermaliger Wiederholung nachgewiesen. Jedes Sterilisationsmittel wurde mindestens 5 Jahre lang geprüft.
# (§2) Die Entwicklung der Perioden der Organogenese wird zytologisch überwacht. Die Behandlung von Pflanzen mit dem Sterilisationsmittel erfolgt am Anfang der fünften Periode der Organogenese nach Kupermann.
# (§3) Mit dem Ahrenschieben verwirklicht man die Isolierung von Hauptähren und anderen Stockwerken in Pergamentbeuteln. Bei Weizen und Tritikale werden Einzelisolatoren verwendet. Bei Roggen schließt man je 1 Ähre von 5 bis 7 verschiedenen nebeneinander befindlichen Pflanzen in einen gemeinsamen Isolator ein. Bei Hirse wird jede Rispe getrennt isoliert. Der Sterilitätsprozentsatz (X) für Weizen, Roggen, Tritikale und Hirse wird nach der Formel [formula]
# (§4) Samen von unbehandelten Kontrollpflanzen ermittelt.
# (§5) Die Kornzahl in nicht isolierten Ähren von Kontrollpflanzen wird bedingt für 100% Ansetzen bei freier Bestäubung angenommen.
# (§6) Um zuverlässige Angaben zu erhalten, verwendet man 20 bis 25 Isolatoren jeder Wiederholung für Weizen und Tritikale, 10 bis 15 Isolatoren jeder Wiederholung für Roggen und Hirse.
# Pflanzen Tritikale der Sorte PRAG-109 werden in der V. Periode der Organogenese (nach Kupermann) mit einer 1%igen wäßrigen Emulsion von Phthalsäuredibutylester, Phthalsäurediäthylester, Phthalsäuredihexylester, Phthalsäurediisobutylester, Kaliumsalz der 2-Methyl-3-zyklohexenkarbon- säure, 2-Methyl-3-zyklohexenkarbonsäuremethylester behandelt. Die Emulsion enthält 0,01 Masse% Dimethylsulfoxid und 0,1 Masse% C12C14- Kalziumalkylbenzolsulfonat. Der Verbrauch an Präparat beträgt 10 kg/ha. Als Kontrolle dienen Pflanzen, behandelt mit einem Verdünner ohne Sterilisationsmittel. […]
# (§7) In allen Fällen dienen als Kontrolle Pflanzen, behandelt mit einem Verdünner ohne Sterilisationsmittel. Die Prüfergebnisse sind in der Tabelle 20 angeführt. […] Periode der Organogenese erhalten.
# [2] = tested on: tetraploidem Roggen Sorte Belta; settings: V. Periode, 1%ige wäßrige Emulsion, 6 kg/ha; for Prozentsatz des Ansetzens bei freier Bestäubung: control = 100
# Text: as §1, §2, §3, §4, §5, §6
# Pflanzen von tetraploidem Roggen Sorte Belta werden in der V. Periode der Organogenese (nach Kupermann) mit einer 1%igen wäßrigen Emulsion von Kaliumsalz der 2-Methyl-3-zy- klohexenkarbonsäure, 2-Methyl-3-zyklohexenkarbonsäuremethyl- ester, Phthalsäuredibutylester, Phthalsäuredihexylester, Phthalsäuredipropylester, Phthalsäurediallylester, Phthalsäurediisobutylester, Kaliumsalz der […] behandelt. Die Emulsion enthält 0,01 Masse% Dimethylsuloxid und 0,1 Masse% C12-C14-Kalziumalkylbenzolsulfonat. Der Verbrauch an Präparat beträgt 6 kg/ha. Als Kontrolle dienen Pflanzen behandelt mit einem Verdünner ohne Sterilisationsmittel.
# [3] = tested on: Sommerweizen Moskovskaya 35; settings: V. Periode, 1%ige wäßrige Emulsion, 10 kg/ha; for Prozentsatz des Ansetzens der freier Bestäubung: control = 100
# Text: as §1, §2, §3, §4, §5, §6
# Pflanzen des Sommerweizens Sorte Moskovskaya 35 werden in der V. Periode der Organogenese (nach Kupermann) mit einer 1%igen wäßrigen Emulsion von Kaliumsalz der 2-Methyl-3-zyklohexenkarbonsäure,2-Methyl-3-zyklohexenkarbon- äthylester, Phthalsäuredipropylester, Phthalsäurediallylester, Phthalsäurediisobutylester, Kaliumsalz der Benzoesäure behandelt. Die Emulsion enthält 0,01 Masse% Dimethylsulfoxid und 0,1 Masse% C12-C14-Kalziumalkylbenzolsulfonat. Der Verbrauch an Präparat beträgt 10 kg/ha. Als Kontrolle dienen Pflanzen, behandelt mit einem Verdünner ohne Sterilisationsmittel. […]
# as §7
# [4] = tested on: diploidem Roggen Sorte Gibrid 1861/79; settings: V. Periode, 1%ige wäßrige Emulsion, 6 kg/ha; for Prozentsatz des Ansetzens der Körner bei freier Bestäubung: control = 100
# Text: as §1, §2, §3, §4, §5, §6
# Pflanzen von diploidem Roggen Sorte Gibrid 1861/79 werden in der V. Periode der Organogenese (nach Kupermann) mit einer 1%igen wäßrigen Emulsion von Phthalsäurediisobutylester, Kaliumsalz der 2-Methyl-3-zyklohexenkarbonsäure, 2--Methyl-3-zyklohexenkarbonsäuremethylester, Ammoniumsalz der 2-Methyl-3-zyklohexenkarbonsäure, Phthalsäurediallylester, Phthalsäuredihexylester, Ammoniumsalz der p-Hydroxybenzoesäure behandelt. Die Emulsion enthält 0,01 Masse% Dimethylsulfoxid und 0,1 Masse% C12-C14-Kalziumalkylbenzolsulfonat. Der Verbrauch an Präparat beträgt 6 kg/ha. Als Kontrolle dienen Pflanzen, behandelt mit einem Verdünner ohne Sterilisationsmittel.
# [5] = tested on: diploidem Roggen Sorte Kharkovskaya 55; settings: V. und VI. Periode, 1%ige wäßrige Emulsion, 6 kp/ha
# Text: as §1, §2, §3, §4, §5, §6
# Pflanzen von diploidem Roggen Sorte Kharkovskaya 55 werden in der V. und VI. Periode der Organogenese (nach Kupermann) mit einer 1%igen wäßrigen Emulsion von Phthalsäuredibutylester, Phthalsäurediisobutylester, Phthalsäurediallylester, Phthalsäuredihexylester, 2-Methyl-3-zyklohexen- karbonsäuremethylester, Natriumsalz der 2-Methyl-3-zyklohex- enkarbonsäure behandelt. Die Emulsion enthält 0,01 Masse% Dimethylformamid und 0,1 Masse% C12C14-Kalziumalkylbenzolsulfonat.
# Der Verbrauch an Präparat beträgt 6 kp/ha. Als Kontrolle dienen Pflanzen, benandelt mit einem Verdünner ohne Sterilisationsmittel.
compound,measurement,setting,value
"CCCCOC(=O)c1ccccc1C(=O)OCCCC [Beispiel 37, Phthalsäuredibutylester]",Kornzahl der Ähre bei freier Bestäubung,[1],"62,1"
same,Kornzahl der Ähre im Isolator,[1],"0,1"
same,Prozentsatz der Sterilität,[1],"99,8%"
same,Prozentsatz des Ansetzens der Körner bei freier Bestäubung,[1],"90,0%"
"CCCCCCOC(=O)c1ccccc1C(=O)OCCCCCC [Beispiel 51, Phthalsäuredihexylester]",Kornzahl der Ähre bei freier Bestäubung,[2],"45,9"
same,Kornzahl der Ähre im Isolator,[2],"0,2"
same,Prozentsatz der Sterilität,[2],"99,5%"
same,Prozentsatz des Ansetzens bei freier Bestäubung,[2],"97,4%"
"CCCOC(=O)c1ccccc1C(=O)OCCC [Beispiel 26, Phthalsäuredipropylester]",Kornzahl der Ähre bei freier Bestäubung,[3],"28,6"
same,Kornzahl der Ähre im Isolator,[3],"1,2"
same,Prozentsatz der Sterilität,[3],"95,6%"
same,Prozentsatz des Ansetzens der freier Bestäubung,[3],"86,1%"
"CC1C=CCCC1C(=O)O (stereo not shown) [Beispiel 41, Kaliumsalz der 2-Methyl-3-zyklohexenkarbon-säure]",Kornzahl der Ähre bei freier Bestäubung,[1],"65,1"
same,Kornzahl der Ähre im Isolator,[1],"0,1"
same,Prozentsatz der Sterilität,[1],"99,8%"
same,Prozentsatz des Ansetzens der Körner bei freier Bestäubung,[1],"94,3%"
"O=C(O)c1ccc(O)cc1 [Beispiel 88, Ammoniumsalz der p-Hydroxybenzoesäure]",Kornzahl der Ähre bei freier Bestäubung,[4],"68,9"
same,Kornzahl der Ähre im Isolator,[4],"0,8"
same,Prozentsatz der Sterilität,[4],"98,5%"
same,Prozentsatz des Ansetzens der Körner bei freier Bestäubung,[4],"109,7%"
"CCCCCCOC(=O)c1ccccc1C(=O)OCCCCCC [Beispiel 39, Phthalsäuredihexylester]",Kornzahl der Ähre bei freier Bestäubung,[1],"61,7"
same,Kornzahl der Ähre im Isolator,[1],"3,0"
same,Prozentsatz der Sterilität,[1],"95,2%"
same,Prozentsatz des Ansetzens der Körner bei freier Bestäubung,[1],"89,4%"
"COC(=O)C1CCC=CC1C (stereo not shown) [Beispiel 42, 2-Methyl-3-zyklohexenkarbonsäuremethylester]",Kornzahl der Ähre bei freier Bestäubung,[1],"64,7"
same,Kornzahl der Ähre im Isolator,[1],"0,0"
same,Prozentsatz der Sterilität,[1],"100,0%"
same,Prozentsatz des Ansetzens der Körner bei freier Bestäubung,[1],"93,8%"
"CC(C)COC(=O)c1ccccc1C(=O)OCC(C)C [Beispiel 82, Phthalsäurediisobutylester]",Kornzahl der Ähre bei freier Bestäubung,[4],"57,1"
same,Kornzahl der Ähre im Isolator,[4],"0,6"
same,Prozentsatz der Sterilität,[4],"98,9%"
same,Prozentsatz des Ansetzens der Körner bei freier Bestäubung,[4],"90,9%"
"COC(=O)C1CCC=CC1C (stereo not shown) [Beispiel 84, 2--Methyl-3-zyklohexenkarbonsäuremethylester]",Kornzahl der Ähre bei freier Bestäubung,[4],"51,2"
same,Kornzahl der Ähre im Isolator,[4],"0,0"
same,Prozentsatz der Sterilität,[4],"100,0%"
same,Prozentsatz des Ansetzens der Körner bei freier Bestäubung,[4],"81,5%"
"CC(C)COC(=O)c1ccccc1C(=O)OCC(C)C [Beispiel 54, Phthalsäurediisobutylester]",Kornzahl der Ähre bei freier Bestäubung,[2],"40,4"
same,Kornzahl der Ähre im Isolator,[2],"0,0"
same,Prozentsatz der Sterilität,[2],"100,0%"
same,Prozentsatz des Ansetzens bei freier Bestäubung,[2],"85,8%"
"CCOC(=O)C1CCC=CC1C (stereo not shown) [Beispiel 24, 2-Methyl-3-zyklohexenkarbon-äthylester]",Kornzahl der Ähre bei freier Bestäubung,[3],"29,6"
same,Kornzahl der Ähre im Isolator,[3],"0,0"
same,Prozentsatz der Sterilität,[3],"100,0%"
same,Prozentsatz des Ansetzens der freier Bestäubung,[3],"89,2%"
"COC(=O)C1CCC=CC1C (stereo not shown) [Beispiel 49, 2-Methyl-3-zyklohexenkarbonsäuremethyl-ester]",Kornzahl der Ähre bei freier Bestäubung,[2],"44,2"
same,Kornzahl der Ähre im Isolator,[2],"0,0"
same,Prozentsatz der Sterilität,[2],"100,0%"
same,Prozentsatz des Ansetzens bei freier Bestäubung,[2],"93,8%"
"COC(=O)C1CCC=CC1C (stereo not shown) [Beispiel 72, 2-Methyl-3-zyklohexen-karbonsäuremethylester]",Kornzahl der Ähre bei freier Bestäubung,[5],"48,0"
same,Kornzahl der Ähre im Isolator,[5],"0,0"
same,Prozentsatz der Sterilität,[5],"100,0%"
same,Prozentsatz des Ansetzens der Körner bei freier Bestäubung,[5]; control = 100,"91,6%"
"CC1C=CCCC1C(=O)O (stereo not shown) [Beispiel 48, Kaliumsalz der 2-Methyl-3-zy-klohexenkarbonsäure]",Kornzahl der Ähre bei freier Bestäubung,[2],"45,6"
same,Kornzahl der Ähre im Isolator,[2],"0,1"
same,Prozentsatz der Sterilität,[2],"99,8%"
same,Prozentsatz des Ansetzens bei freier Bestäubung,[2],"96,8%"
"CCCCOC(=O)c1ccccc1C(=O)OCCCC [Beispiel 50, Phthalsäuredibutylester]",Kornzahl der Ähre bei freier Bestäubung,[2],"43,1"
same,Kornzahl der Ähre im Isolator,[2],"0,0"
same,Prozentsatz der Sterilität,[2],"100,0%"
same,Prozentsatz des Ansetzens bei freier Bestäubung,[2],"91,5%"
"C=CCOC(=O)c1ccccc1C(=O)OCC=C [Beispiel 27, Phthalsäurediallylester]",Kornzahl der Ähre bei freier Bestäubung,[3],"31,1"
same,Kornzahl der Ähre im Isolator,[3],"0,3"
same,Prozentsatz der Sterilität,[3],"98,9%"
same,Prozentsatz des Ansetzens der freier Bestäubung,[3],"94,0%"
"O=C([O-])c1ccccc1.[K+] [Beispiel 29, Kaliumsalz der Benzoesäure]",Kornzahl der Ähre bei freier Bestäubung,[3],"33,0"
same,Kornzahl der Ähre im Isolator,[3],"7,2"
same,Prozentsatz der Sterilität,[3],"73,8%"
same,Prozentsatz des Ansetzens der freier Bestäubung,[3],"99,4%"
"CCCCCCOC(=O)c1ccccc1C(=O)OCCCCCC [Beispiel 87, Phthalsäuredihexylester]",Kornzahl der Ähre bei freier Bestäubung,[4],"56,4"
same,Kornzahl der Ähre im Isolator,[4],"0,0"
same,Prozentsatz der Sterilität,[4],"100,0%"
same,Prozentsatz des Ansetzens der Körner bei freier Bestäubung,[4],"89,8%"
"CCOC(=O)c1ccccc1C(=O)OCC [Beispiel 38, Phthalsäurediäthylester]",Kornzahl der Ähre bei freier Bestäubung,[1],"60,8"
same,Kornzahl der Ähre im Isolator,[1],"0,8"
same,Prozentsatz der Sterilität,[1],"98,7%"
same,Prozentsatz des Ansetzens der Körner bei freier Bestäubung,[1],"88,1%"
"C=CCOC(=O)c1ccccc1C(=O)OCC=C [Beispiel 86, Phthalsäurediallylester]",Kornzahl der Ähre bei freier Bestäubung,[4],"59,6"
same,Kornzahl der Ähre im Isolator,[4],"0,0"
same,Prozentsatz der Sterilität,[4],"100,0%"
same,Prozentsatz des Ansetzens der Körner bei freier Bestäubung,[4],"95,0%"
"CC1C=CCCC1C(=O)O (stereo not shown) [Beispiel 83, Kaliumsalz der 2-Methyl-3-zyklohexenkarbonsäure]",Kornzahl der Ähre bei freier Bestäubung,[4],"56,7"
same,Kornzahl der Ähre im Isolator,[4],"0,2"
same,Prozentsatz der Sterilität,[4],"99,7%"
same,Prozentsatz des Ansetzens der Körner bei freier Bestäubung,[4],"90,2%"
"CC1C=CCCC1C(=O)O (stereo not shown) [Beispiel 85, Ammoniumsalz der 2-Methyl-3-zyklohexenkarbonsäure]",Kornzahl der Ähre bei freier Bestäubung,[4],"57,8"
same,Kornzahl der Ähre im Isolator,[4],"0,0"
same,Prozentsatz der Sterilität,[4],"100,0%"
same,Prozentsatz des Ansetzens der Körner bei freier Bestäubung,[4],"92,0%"
"CC1C=CCCC1C(=O)[O-].[K+] (stereo not shown) [Beispiel 23, Kaliumsalz der 2-Methyl-3-zyklohexenkarbonsäure]",Kornzahl der Ähre bei freier Bestäubung,[3],"30,8"
same,Kornzahl der Ähre im Isolator,[3],"0,0"
same,Prozentsatz der Sterilität,[3],"100,0%"
same,Prozentsatz des Ansetzens der freier Bestäubung,[3],"92,8%"
"CC(C)COC(=O)c1ccccc1C(=O)OCC(C)C [Beispiel 28, Phthalsäurediisobutylester]",Kornzahl der Ähre bei freier Bestäubung,[3],"31,8"
same,Kornzahl der Ähre im Isolator,[3],"0,0"
same,Prozentsatz der Sterilität,[3],"100,0%"
same,Prozentsatz des Ansetzens der freier Bestäubung,[3],"95,8%"
"CCCOC(=O)c1ccccc1C(=O)OCCC [Beispiel 52, Phthalsäuredipropylester]",Kornzahl der Ähre bei freier Bestäubung,[2],"40,8"
same,Kornzahl der Ähre im Isolator,[2],"0,0"
same,Prozentsatz der Sterilität,[2],"100,0%"
same,Prozentsatz des Ansetzens bei freier Bestäubung,[2],"86,6%"
